# Several values for one entry are separate records, joined by “and”; a condition that tells them apart may be missing. Identical values can stand only once.
# Target: T1, hSARM1 (Homo sapiens, UniProt Q6SZW1, E642Q)
# T1 construct: short of the N′ terminal mitochondria) localization signal (26ERL . .; 6xHis (N); TEV cleavage site (N); made in house; host or cells: HEK293F suspension cells
# T1 sequence (Q6SZW1 with tags, fused parts or gaps E642Q): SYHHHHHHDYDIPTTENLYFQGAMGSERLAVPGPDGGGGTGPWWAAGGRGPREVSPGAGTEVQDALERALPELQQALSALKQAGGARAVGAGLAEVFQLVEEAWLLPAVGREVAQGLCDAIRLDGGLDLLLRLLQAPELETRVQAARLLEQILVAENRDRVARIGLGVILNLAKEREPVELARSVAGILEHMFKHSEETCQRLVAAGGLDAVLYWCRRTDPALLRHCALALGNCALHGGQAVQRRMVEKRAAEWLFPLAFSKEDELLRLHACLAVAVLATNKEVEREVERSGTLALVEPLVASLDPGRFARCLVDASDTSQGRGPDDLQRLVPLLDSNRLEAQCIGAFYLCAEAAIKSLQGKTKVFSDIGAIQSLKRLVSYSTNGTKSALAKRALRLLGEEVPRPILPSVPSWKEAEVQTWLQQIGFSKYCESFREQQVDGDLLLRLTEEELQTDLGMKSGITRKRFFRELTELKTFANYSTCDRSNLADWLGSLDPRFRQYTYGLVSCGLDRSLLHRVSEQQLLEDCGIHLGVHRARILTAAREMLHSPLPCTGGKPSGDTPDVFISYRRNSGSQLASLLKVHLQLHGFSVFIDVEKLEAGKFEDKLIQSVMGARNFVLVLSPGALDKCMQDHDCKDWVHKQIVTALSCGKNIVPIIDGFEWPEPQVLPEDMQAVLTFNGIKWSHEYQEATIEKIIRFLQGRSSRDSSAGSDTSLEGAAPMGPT
# Assay: Cryo-EM 2D classification of hSARM1 conformation
# Conditions: for effect on hSARM1 conformation: 2D classification / GraFix
# Procedure: FIG. 7B: The structural effects of NAD+ and ATP were observed by cryo-EM based on appearance in 2D classification. Presented are the 10 most populated classes (those with the largest number of particles—numbers in green, 1st class is on the left) out of 50-100 from each data collection after the first round of particle picking and classification. By this analysis, the percentage of particles that present full, two-ring structure is 13% (no NAD+); 74% (5 mM NAD+); and 4% (10 mM ATP).
# Cryo-EM grids were prepared by applying 3 μl protein samples to glow-discharged (PELCO easiGlow™ Ted Pella Inc., at 15 mA for 1 minute) holey carbon grids (Quantifoil R 1.2/1.3, Micro Tools GmbH, Germany). The grids were blotted for 4 seconds and vitrified by rapidly plunging into liquid ethane at −182° C. using Leica EM GP plunger (Leica Microsystems, Vienna, Austria). The frozen grids were stored in liquid nitrogen until the day of cryo-EM data collection.
# The data presented herein was collected with three separate cryo-electron microscopes: 1) F30 Polara in Ben-Gurion University, Israel was used for all sample preparation optimization. It was also used to collect data sets without and with potential inhibitors (shown in FIG. 1C and the ATP and NMN supplemented classes in FIG. 7B). Samples were imaged under low-dose conditions on a FEI Tecnai F30 Polara microscope (FEI, Eindhoven) operating at 300 kV. Datasets were collected using SerialEM (D. N. Mastronarde, et al. Journal of structural biology 152, 36-51 (2005)) on a K2 Summit direct electron detector fitted behind an energy filter (Gatan Quantum GIF) with a calibrated pixel size of 1.1 Å. The energy filter was set to remove electrons >±10 eV from the zero-loss peak energy. The defocus range was set from −1.0 μm to −2.5 μm. The K2 summit camera was operated in counting mode at a dose rate of 8 electrons/pixel/second on the camera. Each movie was dose fractionated into 50 image frames, with total electron dose of 80ē/Å2. Dose-fractionated image stacks were aligned using MotionCorr2 (X. Li et al., Nature methods 10, 584-590 (2013)), and their defocus values estimated by Gctf (K. Zhang, et al. J Struct Biol 193, 1-12 (2016)). The sum of the aligned frames was used for further processing and the rest of the processing was done in Cryosparc V2 (A. Punjani, J. et al. Nature Methods 14, 290-+(2017)). Particles were auto-picked and subjected to local motion correction to correct for beam-induced drift and then 2D classification with 50 classes. The best (based on shape, number of particles and resolution) classes were manually selected containing 5459 (for hSARM1E642Q) and 43868 (for SAM1-2) particles. 1 initial 3D reference was prepared from all particles and 3D refinement imposing C8 symmetry resulted the final map. […]
SMILES,"percentage of particles that present full, two-ring structure (10 mM ATP, 13% without supplement)",effect on hSARM1 conformation,"percentage of particles that present full, two-ring structure (5 mM NAD+, 13% or <20% without NAD+)"
Nc1ncnc2c1ncn2[C@@H]1O[C@H](COP(=O)(O)OP(=O)(O)OP(=O)(O)O)[C@@H](O)[C@H]1O [ATP],4%,did not affect hSARM1 conformation,
"NC(=O)c1ccc[n+]([C@@H]2O[C@H](COP(=O)([O-])OP(=O)(O)OC[C@H]3O[C@@H](n4cnc5c(N)ncnc54)[C@H](O)[C@@H]3O)[C@@H](O)[C@H]2O)c1 [NAD+, Nicotinamide adenine dinucleotide]",,,> 80% and 74%
OCC(O)CO [glycerol],,imposes hSARM1 compact conformation,

# Source: patent US20220241416A1, “METHODS FOR THE IDENTIFICATION OF SARM1 NADASE ACTIVITY INHIBITORS AND USES THEREOF” (Bar Ilan University, priority 2021, published 2022)
